Series [1] deals with picrotoxin-induced lethality. Kind of series: Anti-picrotoxin effect (anti-lethal), oral. In kind it is in vivo, male dd-mice. Conditions: Mus musculus, 0.5 h, read-out: Anti-picrotoxin-lethal effect, ED50. The method, then:
1. Anti-picrotoxin Effect
Groups of 7-14 male dd-mice were used. Picrotoxin (5 mg/kg) was administered subcutaneously 60 minutes after the oral administration of test compound, and the 50% anti-lethal dose (ED50) was calculated from the servival rate within 30 minutes.

Series [2] concerns bicuculline-induced tonic convulsion. Kind of series: Anti-bicuculline effect (anti-tonic convulsion), oral. In kind it is in vivo. Conditions: Mus musculus, 5 min; bicuculline 0.6 mg/kg i.v. 60 min after oral test compound; protection of 50% against tonic convulsion within 5 min; male dd-mice; read-out: Anti-bicuculline-convulsive effect, ED50. The method, then:
2. Anti-bicuculline Effect
Groups of 4-14 male dd-mice were used. Bicuculline (0.6 mg/kg) was administered intravenously 60 minutes after the oral administration of test compound, and the ED50, the dose required to protect 50% of the animals against tonic convulsion within 5 minutes was determined.

For series [3] the following is noted: administered peripherally; cited from earlier work.

The structures appear in SMILES notation. Bounds are passed on as bounds.

A word on the ED50: it is the midpoint of the dose-response relation.

Consider `O=C1CC2Cc3c(Cl)cccc3C2N1` (centres unmarked) [A, 5-chloro-1,2,3,3a,4,8b-hexahydro-indeno[1,2-b]pyrrol-2-one], for which the ED50 in series [1] was 18 mg/kg; in series [2] it was 75 mg/kg.

`CN1C(=O)CC2Cc3c(Cl)cccc3C21` (centres unmarked) [B, 5-chloro-1-methyl-1,2,3,3a,4,8b-hexahydro-indeno[1,2-a]pyrrol-2-one]: the figures for the ED50 in series [1] and in series [2] were 36 mg/kg and 68 mg/kg, respectively.

In the case of `Fc1ccc2c(c1)CC1CC(=S)NC21` (centres unmarked) [C, 6-Fluoro-1,2,3,3a,4,8b-hexahydro-indeno[1,2-b]pyrrol-2-thione], the results for the ED50 in series [1] and in series [2] were 45 mg/kg and 70 mg/kg, respectively.

For the compound `O=C1CC2Cc3ccccc3C2N1` (centres unmarked) [Compound E, 1,2,3,3a,4,8bHexahydro-indeno[1,2b]pyrrol2-one, reference compound], the ED50 in series [1] and in series [2] was over 100 mg/kg in each case.

For the compound `O=C1CC2Cc3ccc(F)cc3C2N1` (centres unmarked) [D, 7-Fluoro-1,2,3,3a,4,8b-hexahydro-indeno[1,2-b]pyrrol-2-one], the ED50 in series [1] came out at 48 mg/kg; in series [2], 56 mg/kg.

Take `NCCCC(=O)O` [GABA, gamma-aminobutyric acid]: the “transmission through the blood-brain barrier” value in series [3] is recorded as “hard to transmit through the blood-brain barrier”.
